The record followed here is patent US20260158056A1, “USE OF LOW MOLECULAR WEIGHT HYALURONIC ACID FOR THE TREATMENT OF LUNG MUCOSAL INFLAMMATION” (INSTITUT NATIONAL DE LA SANTÉ ET DE LA RECHERCHE MÉDICALE, priority 2021, published 2026).

What all share (type): cell-based
The subject of assay [1] is IL-8 secreted by F508del/F508del CF human airway epithelial cells. Put plainly: IL-8 ELISA, CF airway epithelial cell monolayers, Cytomix 24 h then Cytomix + treatment 24 h (curative). As to conditions: FIG. 2, 5; curative: Cytomix 24 h, then Cytomix + HA 1 mg/mL or Dexa 10^-6M 24 h; n=7 CF patients. The protocol:
FIG. 2: Measurement by ELISA assay of the pro-inflammatory chemokine IL-8 secreted by F508del/F508del CF human airway epithelial cells cultured as monolayers. Airway epithelial cells were seeded in 48-wells plates and cultured until confluence was reached. Cells were then treated for 24 h with a pro-inflammatory chemokine cocktail (TNFα, IL1β and IFNγ; 10 ng/mL each) called Cytomix (Cy). Cells were thereafter treated with a combo containing Cytomix and the anti-inflammatory dexamethasone (Dexa; 10^-6M), or 15-45 kDa sodium-hyaluronic acid (HA-Na 15-45 kDa) (ARD—Pomacle—France—as prepared according to WO2004050187), 15-30 kDa sodium-hyaluronic acid (HA-Na 15-30 kDa) (Sigma Aldrich), or 30-50 kDa sodium-hyaluronic acid (HA-Na 30-50 kDa) (Sigma Aldrich) at 1 mg/mL during the following 24 h. The culture medium was finally collected and the IL-8 content was determined by ELISA assay. n=7 different F508del/F508del CF patients. p<0.001 (***); p<0.01 (**); p<0.05 (*).ns: non-significant.
FIG. 5: Measurement by ELISA assay of the pro-inflammatory chemokine IL-8 secreted by F508del/F508del CF human airway epithelial cells cultured as monolayers. Airway epithelial cells were seeded in 48-wells plates and cultured until confluence was reached. Cells were then treated for 24 h with a pro-inflammatory chemokine cocktail (TNFα, IL1β and IFNγ; 10 ng/ml each) called Cytomix (Cy). Cells were thereafter treated with a combo containing Cytomix and the anti-inflammatory dexamethasone (Dexa; 10^-6M), or 15-45 kDa sodium-hyaluronic acid (HA-Na 15-45 kDa) (ARD—Pomacle—France—as prepared according to WO2004050187), 15-45 kDa calcium-hyaluronic acid (HA-Ca 15-45 kDa; ARD), or 15-45 kDa potassium-hyaluronic acid (HA-K 15-45 kDa; ARD) at 1 mg/mL during the following 24 h. The culture medium was finally collected and the IL-8 content was determined. n=7 different F508del/F508del CF patients. p<0.001 (***); p<0.01 (**); p<0.05 (*). ns: non-significant.

Assay [2] has as its system IL-8 secreted by non-CF human airway epithelial cells. Put plainly: IL-8 ELISA, non-CF airway epithelial cell monolayers, Cytomix + treatment 24 h (co-treatment). As to conditions: FIG. 13, 16; co-treatment: Cytomix + HA 1 mg/mL or Dexa 10^-6M 24 h; n=8 non-CF patients. As to the method:
(§1) FIG. 13: Measurement by ELISA assay of the pro-inflammatory chemokine IL-8 secreted by non-CF human airway epithelial cells cultured as monolayers. Airway epithelial cells were seeded in 48-wells plates and cultured until confluence was reached. Cells were then treated for 24 h with a combo containing a pro-inflammatory chemokine cocktail (TNFα, IL1β and IFNγ 10 ng/ml each) called Cytomix (Cy) and the anti-inflammatory dexamethasone (Dexa; 10^-6M), 15-45 kDa sodium-hyaluronic acid (HA-Na 15-45 kDa) (ARD—Pomacle—France—as prepared according to WO2004050187), 15-30 kDa sodium-hyaluronic acid (HA-Na 15-30 kDa) (Sigma Aldrich), or 30-50 kDa sodium-hyaluronic acid (HA-Na 30-50 kDa) (Sigma Aldrich) at 1 mg/mL. The culture medium was then collected and the IL-8 content was determined. n=8 different non-CF patients. p<0.001 (***); p<0.01 (**); p<0.05 (*). ns: non-significant.
(§2) FIG. 16: Measurement by ELISA assay of the pro-inflammatory chemokine IL-8 secreted by non-CF human airway epithelial cells cultured as monolayers. Airway epithelial cells were seeded in 48-wells plates and cultured until confluence was reached. Cells were then treated for 24 h with a combo containing a pro-inflammatory chemokine cocktail (TNFα, IL1β and IFNγ 10 ng/ml each) called Cytomix (Cy) and the anti-inflammatory dexamethasone (Dexa; 10^-6M), 15-45 kDa sodium-hyaluronic acid (HA-Na 15-45 kDa) (ARD—Pomacle—France—as prepared according to WO2004050187), 15-45 kDa calcium-hyaluronic acid (HA-Ca 15-45 kDa; ARD), or 15-45 kDa potassium hyaluronic acid (HA-K 15-45 kDa; ARD) at 1 mg/mL. The culture medium was then collected and the IL-8 content was determined. n=8 different non-CF patients. p<0.001 (***); p<0.01 (**); p<0.05 (*). ns: non-significant.

Assay [3] deals with IL-8 secreted by human COPD airway epithelial cells. The assay is described as follows: IL-8 ELISA, COPD airway epithelial cell monolayers, Cytomix + treatment 24 h (co-treatment). As to conditions: FIG. 18, 20; co-treatment: Cytomix + HA 1 mg/mL or Dexa 10^-6M 24 h; n=5 COPD patients. The protocol:
as §1, with “18:” for “13:”, “by” for “by non-CF”, “human COPD” for “human”, “ng/mL” for “ng/ml”, “n=5 COPD patient.” for “n=8 different non-CF patients.”
as §2, with “20:” for “16:”, “by” for “by non-CF”, “human COPD” for “human”, “n=5” for “n=8”, “COPD” for “non-CF”

In the case of “15-30 kDa sodium-hyaluronic acid [HA-Na 15-30 kDa]”, the “decrease in IL-8 secretion” value is given as 44.2% in assay [1], 38.1% in assay [2] and 43.1% in assay [3].

Turning to “15-45 kDa calcium-hyaluronic acid [HA-Ca 15-45 kDa]”, the “decrease in IL-8 secretion” value in assay [1] was found to be 33.6%; in assay [2], 8.5%; in assay [3], 12.9%.

As to “15-45 kDa potassium-hyaluronic acid [HA-K 15-45 kDa]”, the entries for the “decrease in IL-8 secretion” value in assay [1], in assay [2] and in assay [3] were 47.5%, 22.2% and 27.5%, respectively.

Turning to “15-45 kDa sodium-hyaluronic acid [HA-Na 15-45 kDa]”, the “decrease in IL-8 secretion” value in assay [1] is listed as 32.1%; in assay [2] it was 41.6%; in assay [3], 33.4%.

Regarding “30-50 kDa sodium-hyaluronic acid [HA-Na 30-50 kDa]”, the “decrease in IL-8 secretion” value in assay [1] came to 42.2%; in assay [2] it was 32.1%; in assay [3] it was 30.8%.

For the compound `C[C@@H]1C[C@H]2[C@@H]3CCC4=CC(=O)C=C[C@]4(C)[C@@]3(F)[C@@H](O)C[C@]2(C)[C@@]1(O)C(=O)CO` [Dexamethasone, dexamethasone, reference compound], the “decrease in IL-8 secretion” value in assay [1] is recorded as 30.9%; in assay [2] it was 33.9%; in assay [3], 32.1%.
